Assay results from US20240300932A1, “N-PHENYLIMINE DERIVATIVE AND PREPARATION METHOD AND USE THEREOF” (Guizhou University, priority 2023, published 2024).
Blank lines part the entries; values can stand above or below the compound they belong to.

How the values were obtained:
[1] = test system: Portulaca oleracea; assay: Post-emergence herbicidal activity test (stem and leaf spray, pot culture); format: in vivo; conditions: 3 weeks after spraying
In short: (§1)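 Greenhouse pot-grown weeds (loam, pH 7) sprayed post-emergence at 2- to 3-leaf stage with acetone/Tween 80 formulation plus 1.5 liters/ha methyl oleate, at 10, 5 and 2.5 g/mu. Fresh-weight growth control rated 3 weeks later on 0–5 grade scale.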

[2] = test system: Echinochloa crusgalli; assay: as above; format: in vivo; conditions: 3 weeks after spraying
In short: as §1

[3] = test system: Abutilon theophrasti; assay: as above; format: in vivo; conditions: 3 weeks after spraying
In short: as §1

[4] = test system: Setaria viridis; assay: as above; format: in vivo; conditions: 3 weeks after spraying
In short: as §1

[5] = test system: Amaranthus retroflexus; assay: as above; format: in vivo; conditions: 3 weeks after spraying
In short: as §1

[6] = test system: Trifoliumre pensL.; assay: Post-emergence herbicidal activity test (stem and leaf spray, pot culture); format: in vivo; conditions: 3 weeks after spraying
In short: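 Rates of 10, 5 and 2.5 g/mu were applied in a single spray-tower treatment to 2–3-leaf plants, thinned to 10 per pot. Formulation: acetone solution, Tween 80, 1.5 L/ha methyl oleate synergist. Weed response assessed after 3 further greenhouse weeks; mean of three experiments.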

melting point: 104 to 106 °C
Structure (SMILES): Cc1ccc(-c2nnc(COc3cc(N4C(=O)C5=C(CCCC5)C4=O)c(F)cc3Cl)o2)cc1 [Compound B13, 2-(4-chloro-2-fluoro-5-((5-(4-tolyl)-1,3,4-oxadiazole-2-yl)methoxy)phenyl)-4,5,6,7-tetrahydro-1H-isoindole-1,3(2H)-dione]
Post-emergence herbicidal activity, P. oleracea (grade) ([1]; dosage 2.5 g/mu): 5 (Grade 5: the growth control rate is greater than or equal to 85%)
Post-emergence herbicidal activity, P. oleracea (grade) ([1]; dosage 5 g/mu): 5 (Grade 5: the growth control rate is greater than or equal to 85%)
Post-emergence herbicidal activity, P. oleracea (grade) ([1]; dosage 10 g/mu): 5 (Grade 5: the growth control rate is greater than or equal to 85%)
Post-emergence herbicidal activity, E. crusgalli (grade) ([2]; dosage 2.5 g/mu): 1 (Grade 1: the growth control rate is greater than or equal to 5% and less than 20%)
Post-emergence herbicidal activity, E. crusgalli (grade) ([2]; dosage 5 g/mu): 2 (Grade 2: the growth control rate is greater than or equal to 20% and less than 40%)
Post-emergence herbicidal activity, E. crusgalli (grade) ([2]; dosage 10 g/mu): 3 (Grade 3: the growth control rate is greater than or equal to 40% and less than 60%)
Post-emergence herbicidal activity, A. theophrasti (grade) ([3]; dosage 2.5 g/mu): 5 (Grade 5: the growth control rate is greater than or equal to 85%)
Post-emergence herbicidal activity, A. theophrasti (grade) ([3]; dosage 5 g/mu): 5 (Grade 5: the growth control rate is greater than or equal to 85%)
Post-emergence herbicidal activity, A. theophrasti (grade) ([3]; dosage 10 g/mu): 5 (Grade 5: the growth control rate is greater than or equal to 85%)
Post-emergence herbicidal activity, S. viridis (grade) ([4]; dosage 2.5 g/mu): 2 (Grade 2: the growth control rate is greater than or equal to 20% and less than 40%)
Post-emergence herbicidal activity, S. viridis (grade) ([4]; dosage 5 g/mu): 3 (Grade 3: the growth control rate is greater than or equal to 40% and less than 60%)
Post-emergence herbicidal activity, S. viridis (grade) ([4]; dosage 10 g/mu): 4 (Grade 4: the growth control rate is greater than or equal to 60% and less than 85%)
Post-emergence herbicidal activity, A. retroflexus (grade) ([5]; dosage 2.5 g/mu): 5 (Grade 5: the growth control rate is greater than or equal to 85%)
Post-emergence herbicidal activity, A. retroflexus (grade) ([5]; dosage 5 g/mu): 5 (Grade 5: the growth control rate is greater than or equal to 85%)
Post-emergence herbicidal activity, A. retroflexus (grade) ([5]; dosage 10 g/mu): 5 (Grade 5: the growth control rate is greater than or equal to 85%)
Post-emergence herbicidal activity, Trifoliumre pensL. (grade) ([6]; dosage 2.5 g/mu): 5 (Grade 5: the growth control rate is greater than or equal to 85%)
Post-emergence herbicidal activity, Trifoliumre pensL. (grade) ([6]; dosage 5 g/mu): 5 (Grade 5: the growth control rate is greater than or equal to 85%)
Post-emergence herbicidal activity, Trifoliumre pensL. (grade) ([6]; dosage 10 g/mu): 5 (Grade 5: the growth control rate is greater than or equal to 85%)

melting point: 124 to 131 °C
Structure (SMILES): O=C(COc1cc(N2C(=O)C3=C(CCCC3)C2=O)c(F)cc1Cl)c1ccccc1 [Compound C1, 2-(4-chloro-2-fluoro-5-(2-oxo-2-phenylethoxy)phenyl)-4,5,6,7-tetrahydro-1H-isoindole-1,3(2H)-dione]
Post-emergence herbicidal activity, P. oleracea (grade) ([1]; dosage 2.5 g/mu): 5 (Grade 5: the growth control rate is greater than or equal to 85%)
Post-emergence herbicidal activity, P. oleracea (grade) ([1]; dosage 5 g/mu): 5 (Grade 5: the growth control rate is greater than or equal to 85%)
Post-emergence herbicidal activity, P. oleracea (grade) ([1]; dosage 10 g/mu): 5 (Grade 5: the growth control rate is greater than or equal to 85%)
Post-emergence herbicidal activity, E. crusgalli (grade) ([2]; dosage 2.5 g/mu): 1 (Grade 1: the growth control rate is greater than or equal to 5% and less than 20%)
Post-emergence herbicidal activity, E. crusgalli (grade) ([2]; dosage 5 g/mu): 2 (Grade 2: the growth control rate is greater than or equal to 20% and less than 40%)
Post-emergence herbicidal activity, E. crusgalli (grade) ([2]; dosage 10 g/mu): 3 (Grade 3: the growth control rate is greater than or equal to 40% and less than 60%)
Post-emergence herbicidal activity, A. theophrasti (grade) ([3]; dosage 2.5 g/mu): 5 (Grade 5: the growth control rate is greater than or equal to 85%)
Post-emergence herbicidal activity, A. theophrasti (grade) ([3]; dosage 5 g/mu): 5 (Grade 5: the growth control rate is greater than or equal to 85%)
Post-emergence herbicidal activity, A. theophrasti (grade) ([3]; dosage 10 g/mu): 5 (Grade 5: the growth control rate is greater than or equal to 85%)
Post-emergence herbicidal activity, S. viridis (grade) ([4]; dosage 2.5 g/mu): 2 (Grade 2: the growth control rate is greater than or equal to 20% and less than 40%)
Post-emergence herbicidal activity, S. viridis (grade) ([4]; dosage 5 g/mu): 3 (Grade 3: the growth control rate is greater than or equal to 40% and less than 60%)
Post-emergence herbicidal activity, S. viridis (grade) ([4]; dosage 10 g/mu): 4 (Grade 4: the growth control rate is greater than or equal to 60% and less than 85%)
Post-emergence herbicidal activity, A. retroflexus (grade) ([5]; dosage 2.5 g/mu): 5 (Grade 5: the growth control rate is greater than or equal to 85%)
Post-emergence herbicidal activity, A. retroflexus (grade) ([5]; dosage 5 g/mu): 5 (Grade 5: the growth control rate is greater than or equal to 85%)
Post-emergence herbicidal activity, A. retroflexus (grade) ([5]; dosage 10 g/mu): 5 (Grade 5: the growth control rate is greater than or equal to 85%)
Post-emergence herbicidal activity, Trifoliumre pensL. (grade) ([6]; dosage 2.5 g/mu): 5 (Grade 5: the growth control rate is greater than or equal to 85%)
Post-emergence herbicidal activity, Trifoliumre pensL. (grade) ([6]; dosage 5 g/mu): 5 (Grade 5: the growth control rate is greater than or equal to 85%)
Post-emergence herbicidal activity, Trifoliumre pensL. (grade) ([6]; dosage 10 g/mu): 5 (Grade 5: the growth control rate is greater than or equal to 85%)

melting point: 171 to 178 °C
Structure (SMILES): N#Cc1ccc(C(=O)COc2cc(N3C(=O)C4=C(CCCC4)C3=O)c(F)cc2Cl)cc1 [Compound C3, 2-(4-chloro-2-fluoro-5-(2-oxo-2-(4-cyanophenyl)ethoxy)phenyl)-4,5,6,7-tetrahydro-1H-isoindole-1,3(2H)-dione]
Post-emergence herbicidal activity, P. oleracea (grade) ([1]; dosage 2.5 g/mu): 5 (Grade 5: the growth control rate is greater than or equal to 85%)
Post-emergence herbicidal activity, P. oleracea (grade) ([1]; dosage 5 g/mu): 5 (Grade 5: the growth control rate is greater than or equal to 85%)
Post-emergence herbicidal activity, P. oleracea (grade) ([1]; dosage 10 g/mu): 5 (Grade 5: the growth control rate is greater than or equal to 85%)
Post-emergence herbicidal activity, E. crusgalli (grade) ([2]; dosage 2.5 g/mu): 1 (Grade 1: the growth control rate is greater than or equal to 5% and less than 20%)
Post-emergence herbicidal activity, E. crusgalli (grade) ([2]; dosage 5 g/mu): 2 (Grade 2: the growth control rate is greater than or equal to 20% and less than 40%)
Post-emergence herbicidal activity, E. crusgalli (grade) ([2]; dosage 10 g/mu): 3 (Grade 3: the growth control rate is greater than or equal to 40% and less than 60%)
Post-emergence herbicidal activity, A. theophrasti (grade) ([3]; dosage 2.5 g/mu): 5 (Grade 5: the growth control rate is greater than or equal to 85%)
Post-emergence herbicidal activity, A. theophrasti (grade) ([3]; dosage 5 g/mu): 5 (Grade 5: the growth control rate is greater than or equal to 85%)
Post-emergence herbicidal activity, A. theophrasti (grade) ([3]; dosage 10 g/mu): 5 (Grade 5: the growth control rate is greater than or equal to 85%)
Post-emergence herbicidal activity, S. viridis (grade) ([4]; dosage 2.5 g/mu): 2 (Grade 2: the growth control rate is greater than or equal to 20% and less than 40%)
Post-emergence herbicidal activity, S. viridis (grade) ([4]; dosage 5 g/mu): 3 (Grade 3: the growth control rate is greater than or equal to 40% and less than 60%)
Post-emergence herbicidal activity, S. viridis (grade) ([4]; dosage 10 g/mu): 4 (Grade 4: the growth control rate is greater than or equal to 60% and less than 85%)
Post-emergence herbicidal activity, A. retroflexus (grade) ([5]; dosage 2.5 g/mu): 5 (Grade 5: the growth control rate is greater than or equal to 85%)
Post-emergence herbicidal activity, A. retroflexus (grade) ([5]; dosage 5 g/mu): 5 (Grade 5: the growth control rate is greater than or equal to 85%)
Post-emergence herbicidal activity, A. retroflexus (grade) ([5]; dosage 10 g/mu): 5 (Grade 5: the growth control rate is greater than or equal to 85%)
Post-emergence herbicidal activity, Trifoliumre pensL. (grade) ([6]; dosage 2.5 g/mu): 5 (Grade 5: the growth control rate is greater than or equal to 85%)
Post-emergence herbicidal activity, Trifoliumre pensL. (grade) ([6]; dosage 5 g/mu): 5 (Grade 5: the growth control rate is greater than or equal to 85%)
Post-emergence herbicidal activity, Trifoliumre pensL. (grade) ([6]; dosage 10 g/mu): 5 (Grade 5: the growth control rate is greater than or equal to 85%)

melting point: 141 to 143 °C
Structure (SMILES): O=C(COc1cc(N2C(=O)C3=C(CCCC3)C2=O)c(F)cc1Cl)c1ccccc1F [Compound C4, 2-(4-chloro-2-fluoro-5-(2-oxo-2-(2-fluorophenyl)ethoxy)phenyl)-4,5,6,7-tetrahydro-1H-isoindole-1,3(2H)-dione]
Post-emergence herbicidal activity, P. oleracea (grade) ([1]; dosage 2.5 g/mu): 5 (Grade 5: the growth control rate is greater than or equal to 85%)
Post-emergence herbicidal activity, P. oleracea (grade) ([1]; dosage 5 g/mu): 5 (Grade 5: the growth control rate is greater than or equal to 85%)
Post-emergence herbicidal activity, P. oleracea (grade) ([1]; dosage 10 g/mu): 5 (Grade 5: the growth control rate is greater than or equal to 85%)
Post-emergence herbicidal activity, E. crusgalli (grade) ([2]; dosage 2.5 g/mu): 1 (Grade 1: the growth control rate is greater than or equal to 5% and less than 20%)
Post-emergence herbicidal activity, E. crusgalli (grade) ([2]; dosage 5 g/mu): 2 (Grade 2: the growth control rate is greater than or equal to 20% and less than 40%)
Post-emergence herbicidal activity, E. crusgalli (grade) ([2]; dosage 10 g/mu): 3 (Grade 3: the growth control rate is greater than or equal to 40% and less than 60%)
Post-emergence herbicidal activity, A. theophrasti (grade) ([3]; dosage 2.5 g/mu): 5 (Grade 5: the growth control rate is greater than or equal to 85%)
Post-emergence herbicidal activity, A. theophrasti (grade) ([3]; dosage 5 g/mu): 5 (Grade 5: the growth control rate is greater than or equal to 85%)
Post-emergence herbicidal activity, A. theophrasti (grade) ([3]; dosage 10 g/mu): 5 (Grade 5: the growth control rate is greater than or equal to 85%)
Post-emergence herbicidal activity, S. viridis (grade) ([4]; dosage 2.5 g/mu): 2 (Grade 2: the growth control rate is greater than or equal to 20% and less than 40%)
Post-emergence herbicidal activity, S. viridis (grade) ([4]; dosage 5 g/mu): 3 (Grade 3: the growth control rate is greater than or equal to 40% and less than 60%)
Post-emergence herbicidal activity, S. viridis (grade) ([4]; dosage 10 g/mu): 4 (Grade 4: the growth control rate is greater than or equal to 60% and less than 85%)
Post-emergence herbicidal activity, A. retroflexus (grade) ([5]; dosage 2.5 g/mu): 5 (Grade 5: the growth control rate is greater than or equal to 85%)
Post-emergence herbicidal activity, A. retroflexus (grade) ([5]; dosage 5 g/mu): 5 (Grade 5: the growth control rate is greater than or equal to 85%)
Post-emergence herbicidal activity, A. retroflexus (grade) ([5]; dosage 10 g/mu): 5 (Grade 5: the growth control rate is greater than or equal to 85%)
Post-emergence herbicidal activity, Trifoliumre pensL. (grade) ([6]; dosage 2.5 g/mu): 5 (Grade 5: the growth control rate is greater than or equal to 85%)
Post-emergence herbicidal activity, Trifoliumre pensL. (grade) ([6]; dosage 5 g/mu): 5 (Grade 5: the growth control rate is greater than or equal to 85%)
Post-emergence herbicidal activity, Trifoliumre pensL. (grade) ([6]; dosage 10 g/mu): 5 (Grade 5: the growth control rate is greater than or equal to 85%)
